Patent publication US11415493B2, “Detection of cells in a liquid sample” (DELTA INSTRUMENTS B.V., priority 2016, dated 2022)
“Also recorded” adds a separate entry of the source.

How the values were obtained:
[1] = tested on: Listeria monocytogenes, Staphylococcus aureus, Bacillus cereus, Pseudomonas aeruginosa, Escherichia coil; assay: Validation of flow cytometry counts versus Petrifilm CFU in raw milk spiked with gram positive and gram negative bacteria; type: cell-based; settings: raw milk with individual bacterial cultures
Text: A selection of gram negative and gram positive bacteria were chosen to be placed into raw milk and processed and analyzed following the GelGreen™ raw milk treatment staining protocol as disclosed in example 2. The gram positive organisms selected were Listeria monocytogenes (Lm), Staphylococcus aureus (Sa), and Bacillus cereus (Bc). The gram negative organisms selected were Pseudomonas aeruginosa (Pa) and Escherichia coil (Ec). Different concentrations of each culture were placed into a sample of raw milk and kept at 4° C. until processed. Each sample of raw milk with an individual bacterial culture was processed and analyzed following the GelGreen™ protocol as described in example 2. Each sample of raw milk with an individual bacterial culture was appropriately diluted in Butterfield's PBS and 1 mL was plated on Petrifilms in duplicate and CFU/mL were obtained. The resulting Log FCM counts per mL were plotted against the Log Petrifilm CFU per mL.

E. coli = assay: Staining E. coli in spiked raw milk and saline at different temperatures, flow cytometry; type: cell-based, Escherichia coli; settings: around 60° C. versus lower temperatures (40, 35, 25, 23° C.), 1 minute, pH 10.6
Experimental: Both solutions were spiked with E. coli bacteria by adding 200 μl bacterial culture to 45 ml solution. The staining composition was prepared with the same dilution of GelGreen™ (from Biotium) as described in Example 1, but this time into a Tris-saline solution (200 mM Trizma base, 150 mM NaCl, pH 10.6) further comprising 0.12 AU/ml liquid Alcalase® 2.4 L FG (from Novozymes). Incubations were as described in the previous examples, except that spiked raw milk samples were incubated at 60, 40 and 23° C. and spiked saline samples were incubated at 60, 35 and 25° C. for 1 minute. […] Each panel contains four quarters: Q1, Q2, Q3 and Q4. The counts provided in Q4 represent the number of cells given in each of these four quarters. […] The optimal range as disclosed herein is 40 to 70° C., a further preferred range is 60 to 68° C. and a highly preferred temperature point is 62° C.

E. coli in raw milk = assay: GelGreen raw milk treatment staining protocol, flow cytometry; type: cell-based, Escherichia coli; settings: raw milk diluted in Tris-buffered saline pH 8.5, approximately 50 to 60° C.
Experimental: To show how the FL1, FL2 signals look like in un-spiked raw milk, low bacterial count raw milk was analyzed. The locally obtained raw milk (generally from a farm) has a very low bacteria count ranging from 1000 to 50,000 CFU per mL. The staining composition comprising GelGreen™ as the nucleic acid dye was prepared in the same way as in Example 1, except that the protease Savinase® 16L (from Novozymes) was added in an amount of 1.92×10^3 NPU/ml, where NPU is “Novo Protease Unit which is the same as Anson unit (AU). […] The sample with the staining composition was incubated at approximately 50° C. for approximately 4 to 5 min; the sample was again sonicated for approximately 5 seconds and finally the sample was analyzed on the flow cytometer and the fluorescent signals from the bacteria were detected and a count per unit volume was determined.
A small volume of raw milk was processed and analyzed following this GelGreen™ raw milk treatment staining method protocol (FIG. 38). To show the FL1 and FL2 signals for spiked raw milk, a known number of E. coli were placed into a known volume of the same raw milk and kept at 4° C. until treated, stained and analyzed on the flow cytometer. The raw milk with E. coli was processed and analyzed using the same GelGreen™ raw milk treatment staining method protocol. […]

For `CN(C)c1ccc2cc3ccc(N(C)C)cc3[n+](CCCCCC(=O)NCCCOCCOCCOCCCNC(=O)CCCCC[n+]3c4cc(N(C)C)ccc4cc4ccc(N(C)C)cc43)c2c1.[I-].[I-]` [GelGreen™], the “relationship of Log FCM counts per mL versus Log Petrifilm CFU per mL” value [1] was “overall linear relationship”, the bacterial cells counted (E. coli) was “more bacterial cells could be counted” and the “staining of bacterial cells in raw milk” value (E. coli in raw milk) was “clear population of E. coli was identified; also recorded: bacterial cells being stained”.
